US20240083910A1, “AMIDO-SUBSTITUTED PYRIDYL COMPOUNDS AND METHODS OF USE THEREOF FOR THE TREATMENT OF HERPESVIRUSES” (Merck Sharp & Dohme LLC, priority 2020, published 2024)
Where two headings read alike, the source gives them in different places.

Legend:
HSV-1 Strain F = assay: Viral qPCR assay, HSV-1; format: cell-based, Herpes Simplex Virus type 1; details: Vero or MRC5 cells, 0.0005-0.004 pfu/cell, growth medium, viral genome copies by qPCR, read-out: HSV1 Cell (EC50)
Protocol: (§1) MRC5 cells, Vero cells, and MeWo cells were obtained from ATCC, and were maintained at 37° C./5% CO2/90% relative humidity in Minimal Essential Medium with 10% fetal bovine serum, […] L-glutamine, 100 units/ml penicillin and 100 ug/ml streptomycin. Assay plates were prepared by dispensing compounds dissolved in DMSO into wells of 384 well collagen-coated plates using an ECHO acoustic dispenser. Each compound was tested in a 10-point, serial 3-fold dilution. Controls included uninfected cells and infected cells treated only with DMSO. Assays were initiated by mixing selected cells, in suspension, with virus, and dispensing 50 μl/well infected cells to pre-plated compounds. Plates were incubated at 37° C./5% CO2/90% relative humidity for ˜72 hrs to permit genomic replication, and infected cells were lysed by the addition of an equal volume of lysis buffer (10 mM Tris-HCl, pH8, 50 mM KCl, 2 mM MgCl2, 0.45% NP-40, 0.45% Tween-20, and 100 μg/ml proteinase K). An aliquot of the lysate was transferred to a 384-well PCR plate and incubated at 56° C. for 1 hour and then at 95° C. for 10 min. Levels of a viral gene and of the cellular control, PPIA (Thermo Fisher Assay ID=Hs04194521_s1), were measured in separate 10 ul qPCR assays using TaqMan® Gene Expression Master Mix (Applied Biosystems), and an 7900HT Fast Real-Time PCR System with 384-Well Block Module. 7-point, serial 10-fold dilutions of a plasmid standard were run on each plate to generate a standard curve, and genome copies numbers were calculated by plotting experimental Ct onto linear regression of the standard curve. Viral genome copy numbers were normalized by cellular control copy number, and compound effects were normalized to the window defined by the controls. Calculated % effects were fit using a 4-parameter algorithm, and EC50 was reported.
(§2) MRC5 cells, Vero cells, and MeWo cells were obtained from ATCC, and were maintained at 37° C./5% CO2/90% relative humidity in Minimal Essential Medium with 10% fetal bovine serum, […] L-glutamine, 100 units/ml penicillin and 100 ug/ml streptomycin. Assay plates were prepared by dispensing compounds dissolved in DMSO into wells of 384 well collagen-coated plates using an ECHO acoustic dispenser. Each compound was tested in a 10-point, serial 3-fold dilution. Controls included uninfected cells and infected cells treated only with DMSO. Assays were initiated by mixing selected cells, in suspension, with virus, and dispensing 50 μl/well infected cells to pre-plated compounds. Plates were incubated at 37° C./5% CO2/90% relative humidity for ˜72 hrs to permit genomic replication, and infected cells were lysed by the addition of an equal volume of lysis buffer (10 mM Tris-HCl, pH 8, 50 mM KCl, 2 mM MgC12, 0.45% NP-40, 0.45% Tween-20, and 100 μg/ml proteinase K). An aliquot of the lysate was transferred to a 384-well PCR plate and incubated at 56° C. for 1 hour and then at 95° C. for 10 min. Levels of a viral gene were measured in 10 ul qPCR assays using TaqMan® Gene Expression Master Mix (Applied Biosystems), and an 7900HT Fast Real-Time PCR System with 384-Well Block Module. 7-point, serial 10-fold dilutions of a plasmid standard were run on each plate to generate a standard curve, and genome copies numbers were calculated by plotting experimental Ct onto linear regression of the standard curve. Compound effects on viral genome copy number were normalized to the window defined by the controls. Calculated % effects were fit using a 4-parameter algorithm, and ECso was reported.
HSV-1: Strain F […] was assayed in Vero or MRC5 cells and was used at 0.0005-0.004 pfu/cell in growth medium. Primer-probe set was Thermo Fisher Assay ID=AIBJZIB

[1] = target: T1, Human cytomegalovirus DNA polymerase (Human cytomegalovirus, UniProt P08546); assay: CMV polymerase assay (AlphaLISA); format: biochemical; details: HCMV polymerase 0.2 nM, 30 min pre-incubation, 60 min at 37° C.
T1 construct: made in house; host or cells: SF21 insect cells (baculovirus vector)
Protocol: Human cytomegalovirus and varicella zoster virus DNA polymerases were expressed via baculovirus vector in SF21 cells and purified. Heterodimeric nucleic acid substrate used in the herpesvirus polymerase reactions was generated by annealing a 59-mer template to a 17-mer digoxigenin-labeled primer. Polymerase (HCMV final concentration of 0.2 nM; VZV final concentration of 0.4 nM) was combined with an inhibitor compound or DMSO in assay buffer (10 mM HEPES, pH 7.5, 25 mM KCl, 25 mM NaCl, 5 mM MgCl2, 5% glycerol, 0.67 mg/ml bovine serum albumin, and 1 mM tris(2-carboxyethyl)phosphine), and this mixture was pre-incubated for 30 minutes at room temperature in 384-well microtiter plates. The polymerization reaction was initiated by the addition of template/primer substrate (final concentration: 1.6 nM), and dNTPs (final concentration: 24 nM dCTP, 24 nMdGTP, 16 nM dATP, 16 nM dTTP, and 0.8 nM biotin-dUTP). After 60 min incubation at 37° C., reactions were terminated with quench buffer (25 mM HEPES pH 7.5, 100 mM NaCl, 0.25% Tween-20, 12 mM EDTA, and 1 mg/ml bovine serum albumin). Incorporation of biotinylated UTP was detected with 2.5-5 ug/ml anti-DIG AlphaLISA acceptor beads and 5-10 ug/ml streptavidin AlphaLISA donor beads (PerkinElmer). Compound effects were normalized to the window defined by the controls (DMSO only and pre-quenched wells) and were fit using a 4-parameter algorithm to report an IC50.

HCMV Strain AD169 = assay: Viral qPCR assay, HCMV; format: cell-based, Human cytomegalovirus; details: MRC-5 cells, 0.05-0.1 pfu/cell, growth media or 50% fetal bovine serum, viral genome copies by qPCR, read-out: CMV Cell (EC50)
Protocol: as §1, §2
HCMV: Strain AD169 Street was assayed in MRC-5 cells and was used at 0.05-0.1 pfu/cell. The assays were performed in either growth media or in the same media with 50% fetal bovine serum. Primer-probe set was Thermo Fisher Assay ID=AIFATFK.

VZV = assay: Viral qPCR assay, VZV; format: cell-based, varicella zoster virus; details: MeWo or MRC5 cells, 0.04-0.1 pfu/cell, growth medium, viral genome copies by qPCR
Protocol: as §1, §2
VZV: Strain Street was maintained as an infected cell stock in MRC-5 cells. It was assayed in MeWo or MRC5 cells and was used at 0.04-0.1 pfu/cell. The assays were performed in growth medium. Primer-probe set was Thermo Fisher Assay ID=AIPAEXQ.

[2] = Human betaherpesvirus 5, AD169, MRC5, 72 h

T1 sequence (P08546 whole entry): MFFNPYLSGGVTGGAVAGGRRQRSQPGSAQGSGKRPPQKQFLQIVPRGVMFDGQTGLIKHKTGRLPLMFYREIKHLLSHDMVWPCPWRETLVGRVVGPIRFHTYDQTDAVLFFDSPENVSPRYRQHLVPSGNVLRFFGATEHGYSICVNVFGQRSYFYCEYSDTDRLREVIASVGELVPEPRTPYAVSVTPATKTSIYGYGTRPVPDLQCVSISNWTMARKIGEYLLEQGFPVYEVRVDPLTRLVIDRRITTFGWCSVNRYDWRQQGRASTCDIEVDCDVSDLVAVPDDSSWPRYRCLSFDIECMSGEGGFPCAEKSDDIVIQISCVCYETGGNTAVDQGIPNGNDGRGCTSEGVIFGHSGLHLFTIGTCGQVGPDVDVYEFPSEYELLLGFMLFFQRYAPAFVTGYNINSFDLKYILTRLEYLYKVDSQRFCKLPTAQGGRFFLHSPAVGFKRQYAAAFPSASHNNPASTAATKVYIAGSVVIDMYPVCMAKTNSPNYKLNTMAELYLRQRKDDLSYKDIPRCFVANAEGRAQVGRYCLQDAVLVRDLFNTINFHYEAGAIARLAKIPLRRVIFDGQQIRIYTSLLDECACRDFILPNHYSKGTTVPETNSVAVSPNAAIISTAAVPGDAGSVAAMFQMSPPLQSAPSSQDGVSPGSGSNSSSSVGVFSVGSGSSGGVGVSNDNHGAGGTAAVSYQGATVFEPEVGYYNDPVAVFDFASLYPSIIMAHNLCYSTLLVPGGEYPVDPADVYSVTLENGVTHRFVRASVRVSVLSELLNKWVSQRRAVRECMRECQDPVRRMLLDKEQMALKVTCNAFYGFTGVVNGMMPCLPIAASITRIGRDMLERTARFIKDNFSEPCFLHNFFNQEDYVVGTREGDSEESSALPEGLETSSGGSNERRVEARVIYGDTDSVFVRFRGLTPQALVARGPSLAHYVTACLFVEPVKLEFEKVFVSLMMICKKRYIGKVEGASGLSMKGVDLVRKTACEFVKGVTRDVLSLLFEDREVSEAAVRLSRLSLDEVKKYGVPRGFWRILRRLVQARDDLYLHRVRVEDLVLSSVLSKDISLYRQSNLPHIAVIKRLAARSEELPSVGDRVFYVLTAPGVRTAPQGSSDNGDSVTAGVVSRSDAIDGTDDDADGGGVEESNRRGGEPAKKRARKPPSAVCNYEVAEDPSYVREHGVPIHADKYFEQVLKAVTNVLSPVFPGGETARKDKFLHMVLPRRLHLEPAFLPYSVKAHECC

Row | Structure (SMILES) | EC50 (HSV-1 Strain F; Human alphaherpesvirus 1, 72 h) [nM] | IC50 ([1]; read-out: CMV (IC50)) [nM] | EC50 (HCMV Strain AD169; [2]) [nM] | EC50 (VZV; Human alphaherpesvirus 3, 72 h) [nM] | IC50 ([1]; CMV (IC50)) [nM] | EC50 (HCMV Strain AD169; ~72 hrs) [nM] | EC50 (VZV; ~72 hrs) [nM] | EC50 (HSV-1 Strain F; ~72 hrs) [nM]
1 | COc1nc(C2CC(O)C2)c(O[C@H]2CCN3C(=O)OC[C@@H]3C2)cc1C(=O)NCc1ccc(Cl)cc1 (single isomer, unassigned) [Compound 74] | 271 | 31.6 | 356 | 709 | – | – | – | –
2 | COc1nc(C2CC2O)c(O[C@H]2CCN3C(=O)OC[C@@H]3C2)cc1C(=O)NCc1ccc(Cl)cc1 (single isomer, unassigned) [Compound 77] | – | – | – | – | 31.5 | 872 | – | –
3 | COc1nc(C2CC2O)c(O[C@H]2CCN3C(=O)OC[C@@H]3C2)cc1C(=O)NCc1ccc(Cl)cc1 (single isomer, unassigned) [Compound 78] | 644 | 49 | – | – | – | 616 | 1850 | –
4 | COc1nc(C2CC2O)c(O[C@H]2CCN3C(=O)OC[C@@H]3C2)cc1C(=O)NCc1ccc(Cl)cc1 (single isomer, unassigned) [Compound 79] | – | 28.7 | – | – | – | 337 | 463 | 518
5 | COc1nc(C2CC2O)c(O[C@H]2CCN3C(=O)OC[C@@H]3C2)cc1C(=O)NCc1ccc(Cl)cc1 (single isomer, unassigned) [Compound 80] | – | 98.9 | – | – | – | 3210 | – | –
6 | COc1nc(-c2cnn(C(C)(C)C)c2)c(O[C@H]2CCN3C(=O)OC[C@@H]3C2)cc1C(=O)NCc1ccc(Cl)cc1 [Compound 11] | 456 | 20.3 | 653 | 1270 | – | – | – | –
7 | COc1nc(-c2cccs2)c(O[C@H]2CCN3C(=O)OC[C@@H]3C2)cc1C(=O)NCc1ccc(Cl)cc1 [Compound 12] | 187 | 9.27 | 313 | 235 | – | – | – | –
8 | COc1nc(-c2ccc(C)o2)c(O[C@H]2CCN3C(=O)OC[C@@H]3C2)cc1C(=O)NCc1ccc(Cl)cc1 [Compound 13] | 229 | 16.2 | 457 | 307 | – | – | – | –
9 | COc1nc(-c2ccc(C)s2)c(O[C@H]2CCN3C(=O)OC[C@@H]3C2)cc1C(=O)NCc1ccc(Cl)cc1 [Compound 14] | 824 | 19.2 | 1020 | 2570 | – | – | – | –
10 | COc1nc(-c2ccoc2)c(O[C@H]2CCN3C(=O)OC[C@@H]3C2)cc1C(=O)NCc1ccc(Cl)cc1 [Compound 17] | 186 | 10.7 | 317 | 244 | – | – | – | –
11 | COc1nc(-c2cc[nH]n2)c(O[C@H]2CCN3C(=O)OC[C@@H]3C2)cc1C(=O)NCc1ccc(Cl)cc1 [Compound 18] | – | 19.6 | 1200 | – | – | – | – | –
12 | COc1nc(-c2cc3ccccc3o2)c(O[C@H]2CCN3C(=O)OC[C@@H]3C2)cc1C(=O)NCc1ccc(Cl)cc1 [Compound 20] | 1440 | 25.3 | 587 | 1870 | – | – | – | –
